pIC50: −log10 of the molar value. ≈ marks a conversion by molar mass, not a printed value. Calls of active or inactive are those of the source. The rule behind the calls is not given here.
Columns and labels:
Acinetobacter baumannii [1] = experiment: Antibacterial activity against Acinetobacter baumannii ATCC 51432 assessed as inhibition in bacterial growth incubated for 20 to 24 hrs by CLSI based broth microdilution method; type: functional; conditions: Acinetobacter baumannii, ATCC 51432, time 20-24 hrs; read-out: MIC
Acinetobacter baumannii [2] = experiment: Antibacterial activity against Acinetobacter baumannii ATCC BAA-747 assessed as inhibition in bacterial growth incubated for 20 to 24 hrs by CLSI based broth microdilution method; type: functional; conditions: Acinetobacter baumannii, ATCC BAA-747, time 20-24 hrs; read-out: MIC
[3] = Stability in human plasma assessed as parent compound remaining after 5 hrs relative to control; type: ADME, cell-free; conditions: read-out: Stability
Pseudomonas aeruginosa [4] = experiment: Antibacterial activity against Pseudomonas aeruginosa NCTC 13437 assessed as inhibition in bacterial growth incubated for 20 to 24 hrs by CLSI based broth microdilution method; type: functional; conditions: Pseudomonas aeruginosa, NCTC 13437, time 20-24 hrs; read-out: MIC
Staphylococcus aureus [5] = experiment: Antibacterial activity against Staphylococcus aureus ATCC 29213 assessed as inhibition in bacterial growth incubated for 20 to 24 hrs by CLSI based broth microdilution method; type: functional; conditions: Staphylococcus aureus, ATCC 29213; time 20-24 hrs; read-out: MIC
Klebsiella pneumoniae [6] = experiment: Antibacterial activity against Klebsiella pneumoniae ATCC 700603 assessed as inhibition in bacterial growth incubated for 20 to 24 hrs by CLSI based broth microdilution method; type: functional; conditions: Klebsiella pneumoniae, ATCC 700603, time 20-24 hrs; read-out: MIC
[7] = Stability in mouse plasma; type: ADME, cell-free
[8] = Inhibition of Escherichia coli topoisomerase 4 incubated for 120 mins by Transcreener ADP2 FI assay
Acinetobacter baumannii [9] = experiment: Antibacterial activity against Acinetobacter baumannii ATCC 19606 assessed as inhibition in bacterial growth incubated for 20 to 24 hrs by CLSI based broth microdilution method; type: functional; conditions: time 20-24 hrs
[10] = Stability in rat plasma; type: ADME, cell-free
Pseudomonas aeruginosa [11] = experiment: Antibacterial activity against Pseudomonas aeruginosa ATCC 27853 assessed as inhibition in bacterial growth incubated for 20 to 24 hrs by CLSI based broth microdilution method; type: functional; conditions: time 20-24 hrs
[12] = Stability in rat plasma assessed as parent compound remaining after 5 hrs relative to control; type: ADME, cell-free; conditions: read-out: Stability
hERG (KCNH2) [13] = molecular target: T1, hERG (KCNH2) (Homo sapiens, UniProt Q12809); experiment: Inhibition of hERG potassium channel expressed in CHO cells at 10 uM by electrophysiological patch clamp assay relative to control; type: toxicity, cell-based; conditions: CHO cells expressing hERG
T1 sequence (Q12809 whole entry): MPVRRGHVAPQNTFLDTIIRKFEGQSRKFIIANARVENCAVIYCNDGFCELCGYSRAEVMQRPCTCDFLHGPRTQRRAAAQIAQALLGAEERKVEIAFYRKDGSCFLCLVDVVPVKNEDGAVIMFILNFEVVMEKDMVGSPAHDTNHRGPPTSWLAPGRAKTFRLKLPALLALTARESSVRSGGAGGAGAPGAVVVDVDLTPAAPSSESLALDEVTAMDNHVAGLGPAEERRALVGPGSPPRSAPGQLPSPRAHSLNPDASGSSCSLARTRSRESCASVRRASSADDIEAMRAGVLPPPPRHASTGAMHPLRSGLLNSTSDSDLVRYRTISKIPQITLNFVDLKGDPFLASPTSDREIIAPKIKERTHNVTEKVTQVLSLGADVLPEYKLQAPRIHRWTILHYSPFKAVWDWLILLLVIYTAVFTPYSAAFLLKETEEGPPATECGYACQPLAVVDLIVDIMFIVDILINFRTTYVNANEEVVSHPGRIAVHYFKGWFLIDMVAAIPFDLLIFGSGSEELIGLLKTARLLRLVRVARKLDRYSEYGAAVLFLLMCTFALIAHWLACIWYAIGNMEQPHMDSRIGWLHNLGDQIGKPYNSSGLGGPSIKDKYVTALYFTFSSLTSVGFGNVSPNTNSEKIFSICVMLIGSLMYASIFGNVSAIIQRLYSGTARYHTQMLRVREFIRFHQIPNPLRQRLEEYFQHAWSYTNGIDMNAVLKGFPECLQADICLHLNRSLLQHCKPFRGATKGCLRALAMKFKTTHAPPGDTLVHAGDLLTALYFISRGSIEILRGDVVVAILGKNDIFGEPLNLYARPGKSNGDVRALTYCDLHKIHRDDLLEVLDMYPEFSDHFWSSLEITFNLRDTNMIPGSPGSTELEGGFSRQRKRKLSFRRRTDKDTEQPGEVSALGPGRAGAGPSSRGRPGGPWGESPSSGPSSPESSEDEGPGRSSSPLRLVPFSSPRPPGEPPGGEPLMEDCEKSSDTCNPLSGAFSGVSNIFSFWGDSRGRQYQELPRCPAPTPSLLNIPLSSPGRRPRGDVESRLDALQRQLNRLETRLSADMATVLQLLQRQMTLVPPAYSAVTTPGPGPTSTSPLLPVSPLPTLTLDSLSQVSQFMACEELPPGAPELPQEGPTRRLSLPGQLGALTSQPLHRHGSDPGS

Klebsiella pneumoniae [14] = experiment: Antibacterial activity against Klebsiella pneumoniae ATCC 10031 assessed as inhibition in bacterial growth incubated for 20 to 24 hrs by CLSI based broth microdilution method; type: functional; conditions: time 20-24 hrs
Escherichia coli [15] = experiment: Antibacterial activity against Escherichia coli K-12 BW25113 deltaTolC assessed as inhibition in bacterial growth incubated for 20 to 24 hrs by CLSI based broth microdilution method; type: functional; conditions: time 20-24 hrs
Escherichia coli [16] = experiment: Antibacterial activity against Escherichia coli ATCC BAA-2340 assessed as inhibition in bacterial growth incubated for 20 to 24 hrs by CLSI based broth microdilution method; type: functional; conditions: Escherichia coli, ATCC BAA-2340, time 20-24 hrs; read-out: MIC
DNA gyrase = DNA gyrase (Escherichia coli, UniProt P0AES4+P0AES6); experiment: Inhibition of Escherichia coli DNA gyrase incubated for 80 mins by Transcreener ADP2 FI assay; type: protein-complex assay
Klebsiella pneumoniae [17] = experiment: Antibacterial activity against Klebsiella pneumoniae ATCC BAA-1705 assessed as inhibition in bacterial growth incubated for 20 to 24 hrs by CLSI based broth microdilution method; type: functional; conditions: time 20-24 hrs
hERG (KCNH2) [18] = molecular target: T1, hERG (KCNH2); experiment: Inhibition of hERG potassium channel expressed in CHO cells at 1 uM by electrophysiological patch clamp assay relative to control; type: toxicity, cell-based; conditions: CHO cells expressing hERG
Escherichia coli [19] = experiment: Antibacterial activity against Escherichia coli K-12 BW25113 assessed as inhibition in bacterial growth incubated for 20 to 24 hrs by CLSI based broth microdilution method; type: functional; conditions: Escherichia coli, K-12 BW25113, time 20-24 hrs; read-out: MIC
[20] = Stability in human plasma; type: ADME, cell-free
Escherichia coli [21] = experiment: Antibacterial activity against Escherichia coli ATCC 35218 assessed as inhibition in bacterial growth incubated for 20 to 24 hrs by CLSI based broth microdilution method; type: functional; conditions: Escherichia coli, ATCC 35218, time 20-24 hrs; read-out: MIC
Pseudomonas aeruginosa [22] = experiment: Antibacterial activity against Pseudomonas aeruginosa NCTC 11451 assessed as inhibition in bacterial growth incubated for 20 to 24 hrs by CLSI based broth microdilution method; type: functional; conditions: Pseudomonas aeruginosa, NCTC 11451, time 20-24 hrs; read-out: MIC
Escherichia coli [23] = experiment: Antibacterial activity against Escherichia coli ATCC 25922 assessed as inhibition in bacterial growth incubated for 20 to 24 hrs by CLSI based broth microdilution method; type: functional; conditions: time 20-24 hrs
hERG (KCNH2) [24] = molecular target: T1, hERG (KCNH2); experiment: (§1) Inhibition of hERG potassium channel expressed in CHO cells by electrophysiological patch clamp assay; type: toxicity, cell-based; conditions: human, CHO cells expressing hERG
[25] = molecular target: Voltage-gated inwardly rectifying potassium channel KCNH2 (Homo sapiens, UniProt Q12809); experiment: as §1; type: toxicity, cell-based
Chain of Voltage-gated inwardly rectifying potassium channel KCNH2 (Q12809 whole entry): as above

Staphylococcus aureus [26] = experiment: Antibacterial activity against Staphylococcus aureus ATCC BAA-1556 assessed as inhibition in bacterial growth incubated for 20 to 24 hrs by CLSI based broth microdilution method; type: functional; conditions: Staphylococcus aureus, ATCC BAA-1556, time 20-24 hrs; read-out: MIC
Klebsiella pneumoniae [27] = experiment: Antibacterial activity against Klebsiella pneumoniae ATCC BAA-2146 assessed as inhibition in bacterial growth incubated for 20 to 24 hrs by CLSI based broth microdilution method; type: functional; conditions: Klebsiella pneumoniae, ATCC BAA-2146, time 20-24 hrs; read-out: MIC
Pseudomonas aeruginosa [28] = experiment: Bacteriostatic effect against pseudomonas aeruginosa ATCC 27853 infected in neutropenic CD-1 lung infection mouse model assessed as reduction in colony forming unit at 15 mg/kg, sc TID administered at 8 hrs interval for 24 hrs; type: functional, organism-based
[29] = Stability in mouse microsome; type: ADME; conditions: microsomes
[30] = Drug excretion in Wistar-Han rat urine assessed as parent compound remaining at 3 mg/kg, iv administered upto 48 hrs by LC-MS/MS method; type: ADME, organism-based; conditions: read-out: Drug excretion
Pseudomonas aeruginosa [31] = experiment: Antibacterial activity against pseudomonas aeruginosa ATCC 27853 infected in neutropenic CD-1 lung infection mouse model assessed as reduction in colony forming unit in lung at 15 mg/kg, sc TID administered at 8 hrs interval for 24 hrs; type: functional, organism-based
[32] = Cytotoxicity against HEK293 cells; type: toxicity, cell-based; conditions: human
[33] = Stability in mouse hepatocyte; type: ADME, cell-based; conditions: hepatocytes
[34] = Protein binding in mouse plasma assessed as free fraction; type: ADME, cell-free
CYP2C9 = CYP2C9 (Homo sapiens, UniProt P11712); experiment: Inhibition of CYP2C9 (unknown origin) at 10 uM relative to control; type: ADME
Chain of CYP2C9 (P11712 whole entry): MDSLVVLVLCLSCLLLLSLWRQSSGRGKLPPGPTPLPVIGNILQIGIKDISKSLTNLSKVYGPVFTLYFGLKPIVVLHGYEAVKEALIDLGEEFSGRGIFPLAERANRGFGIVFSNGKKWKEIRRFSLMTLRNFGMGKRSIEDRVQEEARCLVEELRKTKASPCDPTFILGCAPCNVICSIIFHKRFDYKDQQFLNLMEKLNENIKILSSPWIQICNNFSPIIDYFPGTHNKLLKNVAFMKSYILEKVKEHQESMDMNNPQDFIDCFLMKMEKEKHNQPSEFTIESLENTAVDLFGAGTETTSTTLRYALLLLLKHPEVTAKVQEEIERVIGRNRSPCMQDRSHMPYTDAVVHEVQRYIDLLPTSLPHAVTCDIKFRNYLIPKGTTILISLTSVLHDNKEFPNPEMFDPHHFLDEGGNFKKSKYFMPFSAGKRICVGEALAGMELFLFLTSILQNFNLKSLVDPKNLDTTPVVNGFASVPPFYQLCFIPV

Pseudomonas aeruginosa [35] = experiment: Bactericidal effect against pseudomonas aeruginosa ATCC 27853 infected in neutropenic CD-1 lung infection mouse model assessed as reduction in colony forming unit in lung at 45 mg/kg, sc TID administered at […] interval for 24 hrs; type: functional
[36] = Stability in rat hepatocyte; type: ADME, cell-based; conditions: hepatocytes
CYP3A4 = CYP3A4 (Homo sapiens, UniProt P08684); experiment: Inhibition of CYP3A4 (unknown origin) at 10 uM relative to control; type: ADME
Chain of CYP3A4 (P08684 whole entry): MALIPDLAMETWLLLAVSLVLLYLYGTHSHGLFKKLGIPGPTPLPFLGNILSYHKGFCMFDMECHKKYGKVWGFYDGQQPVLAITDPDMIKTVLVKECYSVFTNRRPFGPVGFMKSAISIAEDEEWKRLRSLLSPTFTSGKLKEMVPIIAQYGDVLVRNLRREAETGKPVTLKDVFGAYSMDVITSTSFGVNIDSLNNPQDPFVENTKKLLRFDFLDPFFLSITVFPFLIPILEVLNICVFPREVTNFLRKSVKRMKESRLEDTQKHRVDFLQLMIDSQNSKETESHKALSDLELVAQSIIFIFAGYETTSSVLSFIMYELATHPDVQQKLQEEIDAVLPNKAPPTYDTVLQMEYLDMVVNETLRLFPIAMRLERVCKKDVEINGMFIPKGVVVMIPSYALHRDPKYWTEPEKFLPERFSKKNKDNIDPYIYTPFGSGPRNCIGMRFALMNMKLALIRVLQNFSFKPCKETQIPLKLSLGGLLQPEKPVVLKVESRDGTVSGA

Pseudomonas aeruginosa [37] = experiment: Antibacterial activity against pseudomonas aeruginosa ATCC 27853 infected in neutropenic CD-1 lung infection mouse model assessed as reduction in colony forming unit in lung at 45 mg/kg, sc TID administered for 24 hrs; type: functional, organism-based
CYP2D6 = CYP2D6 (Homo sapiens, UniProt P10635); experiment: Inhibition of CYP2D6 (unknown origin) at 10 uM relative to control; type: ADME
Chain of CYP2D6 (P10635 whole entry): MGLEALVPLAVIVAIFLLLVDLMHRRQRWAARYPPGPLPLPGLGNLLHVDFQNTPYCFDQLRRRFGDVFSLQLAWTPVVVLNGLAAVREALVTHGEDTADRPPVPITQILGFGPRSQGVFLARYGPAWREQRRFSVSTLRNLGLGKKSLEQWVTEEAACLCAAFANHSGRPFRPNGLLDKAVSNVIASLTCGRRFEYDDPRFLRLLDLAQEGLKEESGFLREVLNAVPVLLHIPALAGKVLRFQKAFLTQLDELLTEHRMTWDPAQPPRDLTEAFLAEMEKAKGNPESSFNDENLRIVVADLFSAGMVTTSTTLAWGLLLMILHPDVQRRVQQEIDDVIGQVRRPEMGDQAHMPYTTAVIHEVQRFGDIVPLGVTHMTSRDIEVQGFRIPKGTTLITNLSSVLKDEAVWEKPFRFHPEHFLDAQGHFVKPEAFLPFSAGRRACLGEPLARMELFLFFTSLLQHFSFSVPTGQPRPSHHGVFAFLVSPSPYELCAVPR

[38] = Protein binding in human plasma assessed as free fraction; type: ADME, cell-free
[39] = Stability in human microsome; type: ADME; conditions: microsomes
[40] = Protein binding in rat plasma assessed as free fraction; type: ADME, cell-free
[41] = Stability in human hepatocyte; type: ADME, cell-based; conditions: hepatocytes
[42] = Aqueous solubility of the compound at pH 6.5 at > 0.5 mg/ml; type: physicochemical; conditions: buffer
[43] = Stability in rat microsome; type: ADME; conditions: microsomes

`CN(C)CC(=O)Nc1cc(F)c2c(c1)CC(CNCCC1CN(c3cnc4c(n3)NC(=O)CO4)C(=O)O1)C2` (stereo not given) gave an MIC (Acinetobacter baumannii [1]) of 16 µg/mL (≈ 30.3 µM), an MIC (Acinetobacter baumannii [2]) of 0.25 µg/mL (≈ 0.474 µM) and a remaining at 5 h [3] of 76%. The MIC (Pseudomonas aeruginosa [4]) was 2 µg/mL (≈ 3.79 µM), the MIC (Staphylococcus aureus [5]) was 0.5 µg/mL (≈ 0.948 µM) and the MIC (Klebsiella pneumoniae [6]) was 2 µg/mL (≈ 3.79 µM). For the same compound, the Stability [7] was “Unstable”, the pIC50 [8] was 8.52 and the MIC (Acinetobacter baumannii [9]) was 8 µg/mL (≈ 15.2 µM). The Stability [10] was “Unstable”, the MIC (Pseudomonas aeruginosa [11]) was 0.5 µg/mL (≈ 0.948 µM) and the remaining at 5 h [12] was 99%. For the same compound, the inhibition at 10 µM (hERG (KCNH2) [13]) was < 1%, the MIC (Klebsiella pneumoniae [14]) was ≤ 0.06 µg/mL and the MIC (Escherichia coli [15]) was ≤ 0.06 µg/mL. It also gave an MIC (Escherichia coli [16]) of 0.125 µg/mL (≈ 0.237 µM), a pIC50 (DNA gyrase) of 7.59 and an MIC (Klebsiella pneumoniae [17]) of 2 µg/mL (≈ 3.79 µM). The inhibition at 1 µM (hERG (KCNH2) [18]) was < 1%, the MIC (Escherichia coli [19]) was ≤ 0.06 µg/mL and the Stability [20] was “Unstable”. For the same compound, the MIC (Escherichia coli [21]) was 0.125 µg/mL (≈ 0.237 µM), the MIC (Pseudomonas aeruginosa [22]) was 2 µg/mL (≈ 3.79 µM) and the MIC (Escherichia coli [23]) was 0.125 µg/mL (≈ 0.237 µM). The IC20 (hERG (KCNH2) [24]) was > 10000 nM, the pIC50 [25] was < 4.70 and the MIC (Staphylococcus aureus [26]) was 1 µg/mL (≈ 1.9 µM). It also gave an MIC (Klebsiella pneumoniae [27]) of 4 µg/mL (≈ 7.58 µM).
In the case of `NC1(COc2cc(F)c3c(c2)CC(CNCCC2CN(c4cnc5c(n4)NC(=O)CO5)C(=O)O2)C3)CC1` (stereo not given), the Activity (Pseudomonas aeruginosa [28]) was “inactive”, the MIC (Acinetobacter baumannii [1]) was 2 µg/mL (≈ 3.9 µM) and the Stability [29] was “Stable”. The MIC (Acinetobacter baumannii [2]) was 0.5 µg/mL (≈ 0.976 µM), the dose excreted at 48 h [30] was 5% and the MIC (Pseudomonas aeruginosa [4]) was 1 µg/mL (≈ 1.95 µM). It also gave an MIC (Staphylococcus aureus [5]) of 0.125 µg/mL (≈ 0.244 µM), an MIC (Klebsiella pneumoniae [6]) of 1 µg/mL (≈ 1.95 µM) and a pIC50 [8] of 7.52. The MIC (Acinetobacter baumannii [9]) was 2 µg/mL (≈ 3.9 µM), the Activity (Pseudomonas aeruginosa [31]) was “Active” and the MIC (Pseudomonas aeruginosa [11]) was 0.25 µg/mL (≈ 0.488 µM). For the same compound, the CC50 [32] was > 100000 nM, the Stability [33] was “Stable” and the fraction unbound [34] was 0.4. For the same compound, the inhibition at 10 µM (hERG (KCNH2) [13]) was < 1%, the MIC (Klebsiella pneumoniae [14]) was ≤ 0.06 µg/mL and the inhibition at 10 µM (CYP2C9) was < 25%. The Activity (Pseudomonas aeruginosa [35]) was 2.6 log10CFU, the Stability [36] was “Stable” and the inhibition at 10 µM (CYP3A4) was < 25%. The Activity (Pseudomonas aeruginosa [37]) was “Active”, the MIC (Escherichia coli [15]) was ≤ 0.06 µg/mL and the MIC (Escherichia coli [16]) was 0.25 µg/mL (≈ 0.488 µM). The pIC50 (DNA gyrase) was 7.22, the inhibition at 10 µM (CYP2D6) was < 25% and the MIC (Klebsiella pneumoniae [17]) was 1 µg/mL (≈ 1.95 µM). The fraction unbound [38] was 0.4, the Stability [39] was “Stable” and the inhibition at 1 µM (hERG (KCNH2) [18]) was < 1%. The fraction unbound [40] was 0.32, the MIC (Escherichia coli [19]) was 0.06 µg/mL (≈ 0.117 µM) and the MIC (Escherichia coli [21]) was 0.125 µg/mL (≈ 0.244 µM). The Stability [41] was “Stable”, the solubility [42] was “Soluble” and the MIC (Pseudomonas aeruginosa [22]) was 1 µg/mL (≈ 1.95 µM). For the same compound, the Stability [43] was “Stable”, the MIC (Escherichia coli [23]) was 0.125 µg/mL (≈ 0.244 µM) and the IC20 (hERG (KCNH2) [24]) was > 10000 nM. For the same compound, the pIC50 [25] was < 4.70, the MIC (Staphylococcus aureus [26]) was 0.5 µg/mL (≈ 0.976 µM) and the MIC (Klebsiella pneumoniae [27]) was 2 µg/mL (≈ 3.9 µM).

From ChEMBL document CHEMBL5390317, “Novel Indane-Containing NBTIs with Potent Anti-Gram-Negative Activity and Minimal hERG Inhibition” (ACS Med Chem Lett, 2023)
